Measurements published in ChEMBL document CHEMBL1201862, “PubChem BioAssay data set” (2004).
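The compound was tested at five concentrations on cells cultured in 96-well plates, with a 48-hour exposure period. Here, GI50 denotes the concentration required for 50% inhibition of growth.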 Calls of active or inactive are those of the source. Cut-off read from the data, not from the text of the source: active = GI50 up to about 1.1 µM and inactive = higher.

Key:
Assay in all cases: NCI-60 cell line screen, 48 h
SF-295 = test system: SF-295
SR = test system: SR
OVCAR-3 = test system: OVCAR-3
SF-268 = test system: SF-268
UACC-62 = test system: UACC-62
A549 = test system: A549
LOX IMVI = test system: LOX IMVI
TK-10 = test system: TK-10
NCI-H522 = test system: NCI-H522
UACC-257 = test system: UACC-257
SF-539 = test system: SF-539
NCI-H226 = test system: NCI-H226
K562 = test system: K562
OVCAR-8 = test system: OVCAR-8
RXF 393 = test system: RXF 393
SNB-75 = test system: SNB-75
HCC 2998 = test system: HCC 2998
SK-OV-3 = test system: SK-OV-3
HL-60 = test system: HL-60
UO-31 = test system: UO-31

Measured: GI50

CCCC1CCC(=C2C(=O)CCC2=O)O1 (stereo not given)
active: HL-60 0.364 µM
inactive: SF-295 > 100 µM | SR > 100 µM | OVCAR-3 > 100 µM | SF-268 > 100 µM | UACC-62 > 100 µM | A549 > 100 µM | LOX IMVI > 100 µM | TK-10 > 100 µM | NCI-H522 > 100 µM | UACC-257 > 100 µM | SF-539 > 100 µM | NCI-H226 > 100 µM | K562 > 100 µM | OVCAR-8 > 100 µM | RXF 393 > 100 µM | SNB-75 4.91 µM | HCC 2998 > 100 µM | SK-OV-3 > 100 µM | UO-31 > 100 µM

Cc1cc(N(CCC#N)CCC#N)ccc1/C=C1\SC(=S)NC1=O
inactive: SF-295 17.5 µM | SR 22 µM | OVCAR-3 51.3 µM | SF-268 23.6 µM | UACC-62 48.6 µM | A549 62.4 µM | LOX IMVI > 100 µM | TK-10 > 100 µM | NCI-H522 19.4 µM | UACC-257 > 100 µM | SF-539 69.5 µM | NCI-H226 > 100 µM | K562 40 µM | OVCAR-8 49.3 µM | RXF 393 19.8 µM | SNB-75 11.6 µM | HCC 2998 > 100 µM | SK-OV-3 21.5 µM | HL-60 32.5 µM | UO-31 99.8 µM

COc1ccc(OC)c(C2CCc3nc4nc(N)nc(N)c4cc3C2)c1 (stereo not given)
inactive: SF-295 11.7 µM | SR 2.48 µM | OVCAR-3 1.82 µM | SF-268 2.96 µM | UACC-62 2.03 µM | A549 14.7 µM | LOX IMVI 3.12 µM | TK-10 9.77 µM | NCI-H522 2.19 µM | UACC-257 2.48 µM | SF-539 3.01 µM | NCI-H226 8.47 µM | K562 2.31 µM | OVCAR-8 2.47 µM | RXF 393 2.69 µM | SNB-75 1.94 µM | HCC 2998 1.74 µM | SK-OV-3 4.1 µM | HL-60 2.64 µM | UO-31 3.25 µM

CN(CCCCCl)P(=O)(OCc1ccc([N+](=O)[O-])o1)OC[C@H]1O[C@@H](n2cc(F)c(=O)[nH]c2=O)C[C@@H]1O (stereo not given in full)
active: SF-295 0.0914 µM | SR 0.0702 µM | OVCAR-3 0.52 µM | SF-268 0.0284 µM | UACC-62 0.437 µM | A549 0.0301 µM | LOX IMVI 0.07 µM | SF-539 < 0.01 µM | OVCAR-8 0.352 µM | RXF 393 0.302 µM | SNB-75 0.102 µM | HCC 2998 < 0.01 µM | SK-OV-3 0.372 µM | HL-60 0.766 µM | UO-31 0.355 µM
inactive: TK-10 1.79 µM | NCI-H522 3.77 µM | UACC-257 30.8 µM | NCI-H226 3.59 µM | K562 12.4 µM

C=C(Br)CN(C#N)CC(=C)Br
inactive: SF-295 > 100 µM | SR > 100 µM | OVCAR-3 > 100 µM | SF-268 > 100 µM | UACC-62 > 100 µM | A549 > 100 µM | LOX IMVI > 100 µM | TK-10 > 100 µM | NCI-H522 > 100 µM | UACC-257 > 100 µM | SF-539 > 100 µM | NCI-H226 > 100 µM | K562 > 100 µM | OVCAR-8 > 100 µM | RXF 393 > 100 µM | SNB-75 > 100 µM | HCC 2998 > 100 µM | SK-OV-3 > 100 µM | HL-60 8.85 µM | UO-31 > 100 µM

NS(=O)(=O)c1ccc(NNc2c3ccccc3nc3c(C(=O)Nc4ccc(S(=O)(=O)Nc5ncccn5)cc4)cccc23)cc1
inactive: SF-295 > 25 µM | SR > 25 µM | OVCAR-3 > 25 µM | SF-268 > 25 µM | UACC-62 > 25 µM | A549 > 25 µM | LOX IMVI > 25 µM | TK-10 > 25 µM | NCI-H522 > 25 µM | UACC-257 > 25 µM | SF-539 > 25 µM | NCI-H226 > 25 µM | K562 > 25 µM | OVCAR-8 > 25 µM | RXF 393 > 25 µM | SNB-75 20.2 µM | HCC 2998 > 25 µM | SK-OV-3 > 25 µM | HL-60 > 25 µM | UO-31 > 25 µM
